Experimental data as given in PubChem BioAssay AID248 (DTP/NCI, 2004).
Toxic doses and inconclusive results are not listed.

Tested on: L1210 leukemia ip in BDF1 mice, survival T/C
Assay: NCI In Vivo Anticancer Drug Screen. Data for tumor model L1210 Leukemia (intraperitoneal) in B6D2F1 (BDF1) mice
Conditions: higher = longer survival
Outline: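 Transplanted-tumor mice were given test agent; controls received vehicle only. Survival readings from the two groups were divided (treated over control).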

[1] = endpoint: mean survival time, dose: 100.0 mg/kg/injection, schedule: Q01DX001 (ip), vehicle: other
[2] = endpoint: mean survival time, dose: 400.0 mg/kg/injection, schedule: Q01DX001 (ip), vehicle: other

## Nc1nc(-c2ccccc2)nc2nc3[nH]c(=O)[nH]c(=O)c3nc12
endpoint: mean survival time, dose: 100.0 mg/kg/injection, schedule: Q04DX002 (ip), vehicle: Klucel (hydroxypropylcellulose) (HPC)
  T/C: 94 % of control
endpoint: mean survival time, dose: 200.0 mg/kg/injection, schedule: Q04DX002 (ip), vehicle: Klucel (hydroxypropylcellulose) (HPC)
  T/C: 102 % of control
endpoint: mean survival time, dose: 400.0 mg/kg/injection, schedule: Q04DX002 (ip), vehicle: Klucel (hydroxypropylcellulose) (HPC)
  T/C: 98 % of control

## COC(=O)/C=C(/Nc1cc(Cl)cc(Cl)c1)C(=O)OC
endpoint: mean survival time, dose: 100.0 mg/kg/injection, schedule: Q01DX001 (ip), vehicle: saline
  T/C: 95 % of control
endpoint: mean survival time, dose: 100.0 mg/kg/injection, schedule: Q04DX003 (ip), vehicle: other
  T/C: 86 % of control
endpoint: mean survival time, dose: 200.0 mg/kg/injection, schedule: Q01DX001 (ip), vehicle: saline
  T/C: 98 % of control
endpoint: mean survival time, dose: 400.0 mg/kg/injection, schedule: Q01DX001 (ip), vehicle: saline
  T/C: 90 % of control
endpoint: mean survival time, dose: 400.0 mg/kg/injection, schedule: Q04DX003 (ip), vehicle: other
  T/C: 104 % of control

## COc1cccc2c1C(=O)c1c(O)c3c(c(O)c1C2=O)CC(O)(C(C)=O)CC3OC1CC(N)C(O)C(C)O1 (stereo not given)
endpoint: mean survival time, dose: 2.0 mg/kg/injection, schedule: Q01DX001 (ip), vehicle: saline
  T/C: 121 % of control
endpoint: mean survival time, dose: 8.0 mg/kg/injection, schedule: Q01DX009 (ip), vehicle: saline
  T/C: 98 % of control
endpoint: mean survival time, dose: 16.0 mg/kg/injection, schedule: Q01DX001 (ip), vehicle: saline
  T/C: 121 % of control
endpoint: mean survival time, dose: 32.0 mg/kg/injection, schedule: Q01DX001 (ip), vehicle: saline
  T/C: 100 % of control
endpoint: median survival time, dose: 6.0 mg/kg/injection, schedule: Q01DX005 (ip), vehicle: other
  T/C: 117 % of control
endpoint: median survival time, dose: 6.0 mg/kg/injection, schedule: Q04DX003 (ip), vehicle: water
  T/C: 122 % of control
endpoint: median survival time, dose: 6.6 mg/kg/injection, schedule: Q01DX005 (ip), vehicle: water
  T/C: 115 % of control
endpoint: median survival time, dose: 10.0 mg/kg/injection, schedule: Q04DX003 (ip), vehicle: water
  T/C: 115 % of control
endpoint: median survival time, dose: 11.0 mg/kg/injection, schedule: Q01DX005 (ip), vehicle: other
  T/C: 117 % of control
endpoint: median survival time, dose: 11.0 mg/kg/injection, schedule: Q01DX005 (ip), vehicle: water
  T/C: 121 % of control
endpoint: median survival time, dose: 16.0 mg/kg/injection, schedule: Q01DX005 (ip), vehicle: other
  T/C: 117 % of control
endpoint: median survival time, dose: 17.0 mg/kg/injection, schedule: Q04DX003 (ip), vehicle: water
  T/C: 155 % of control
endpoint: median survival time, dose: 21.0 mg/kg/injection, schedule: Q01DX005 (ip), vehicle: other
  T/C: 122 % of control
endpoint: median survival time, dose: 31.0 mg/kg/injection, schedule: Q01DX005 (ip), vehicle: other
  T/C: 121 % of control
endpoint: median survival time, dose: 48.0 mg/kg/injection, schedule: Q04DX003 (ip), vehicle: water
  T/C: 115 % of control
endpoint: median survival time, dose: 80.0 mg/kg/injection, schedule: Q04DX003 (ip), vehicle: water
  T/C: 157 % of control
endpoint: median survival time, dose: 83.0 mg/kg/injection, schedule: Q01DX005 (ip), vehicle: water
  T/C: 100 % of control
endpoint: median survival time, dose: 133.0 mg/kg/injection, schedule: Q04DX003 (ip), vehicle: water
  T/C: 115 % of control
endpoint: median survival time, dose: 222.0 mg/kg/injection, schedule: Q04DX003 (ip), vehicle: water
  T/C: 89 % of control

## CSc1nnn(C(C)(C)C)n1
endpoint: mean survival time, dose: 100.0 mg/kg/injection, schedule: Q01DX001 (ip), vehicle: acetone
  T/C: 100 % of control
endpoint: mean survival time, dose: 200.0 mg/kg/injection, schedule: Q01DX001 (ip), vehicle: acetone
  T/C: 91 % of control

## CN(C)C(=S)c1ccc(Cl)cc1
endpoint: mean survival time, dose: 12.5 mg/kg/injection, schedule: Q01DX009 (ip), vehicle: Klucel (hydroxypropylcellulose) (HPC)
  T/C: 98 % of control
endpoint: mean survival time, dose: 25.0 mg/kg/injection, schedule: Q01DX009 (ip), vehicle: Klucel (hydroxypropylcellulose) (HPC)
  T/C: 98 % of control

## CCCc1cc(C)cc2nc(-c3ccccc3)oc12
endpoint: mean survival time, dose: 100.0 mg/kg/injection, schedule: Q04DX003 (ip), vehicle: saline with Tween-80
  T/C: 101 % of control
endpoint: mean survival time, dose: 200.0 mg/kg/injection, schedule: Q04DX003 (ip), vehicle: saline with Tween-80
  T/C: 95 % of control
endpoint: mean survival time, dose: 400.0 mg/kg/injection, schedule: Q04DX003 (ip), vehicle: saline with Tween-80
  T/C: 89 % of control

## CC(=O)Nc1nc(C=O)cc(=O)[nH]1
endpoint: mean survival time, dose: 100.0 mg/kg/injection, schedule: Q01DX001 (ip), vehicle: Klucel (hydroxypropylcellulose) (HPC)
  T/C: 100 % of control
[1]
  T/C: 86 % of control
endpoint: mean survival time, dose: 200.0 mg/kg/injection, schedule: Q01DX001 (ip), vehicle: Klucel (hydroxypropylcellulose) (HPC)
  T/C: 104 % of control
endpoint: mean survival time, dose: 400.0 mg/kg/injection, schedule: Q01DX001 (ip), vehicle: Klucel (hydroxypropylcellulose) (HPC)
  T/C: 103 % of control
[2]
  T/C: 91 % of control

## CC(C)(C)OC(=O)N1C2C=CC(C2)N1C(=O)OC(C)(C)C
[1]
  T/C: 101 % of control
endpoint: mean survival time, dose: 100.0 mg/kg/injection, schedule: Q04DX003 (ip), vehicle: Klucel (hydroxypropylcellulose) (HPC)
  T/C: 102 % of control
endpoint: mean survival time, dose: 200.0 mg/kg/injection, schedule: Q01DX001 (ip), vehicle: other
  T/C: 104 % of control
endpoint: mean survival time, dose: 200.0 mg/kg/injection, schedule: Q04DX003 (ip), vehicle: Klucel (hydroxypropylcellulose) (HPC)
  T/C: 98 % of control
[2]
  T/C: 96 % of control
endpoint: mean survival time, dose: 400.0 mg/kg/injection, schedule: Q04DX003 (ip), vehicle: Klucel (hydroxypropylcellulose) (HPC)
  T/C: 109 % of control
